“Also recorded” adds a separate entry of the source. Like-named read-outs stand apart in the source and are kept apart here. Residues, ends and D or L forms follow the SMILES beside them.
Experiments:
[1] = tested on: Glycine, Strychnine-Sensitive; assay: binding assay, Glycine, Strychnine-Sensitive; set-up: species or system rat; settings: 10 μM
Description: (§1) Table B depicts the results of binding assays against various targets with AK51: […]

[2] = tested on: Glutamate, Kainate; assay: binding assay, Glutamate, Kainate; set-up: species or system rat; settings: 10 μM
Description: as §1

[3] = tested on: Glutamate, AMPA; assay: binding assay, Glutamate, AMPA; set-up: species or system rat; settings: 10 μM
Description: as §1

[4] = tested on: Schaffer collateral CA1 synapses; assay: long term depression (LTD) at Schaffer collateral CA1 synapses, in vitro hippocampal slices; type: cell-based; settings: 1 μM; low frequency stimulus
Description: (§2) The effects of the three compounds were examined on 1) NMDA receptor gated single neuron conductance (INMDA) in hippocampal CAI pyramidal neurons and 2) the magnitude of long term potentiation (LTP) and long term depression (LTD) at Schaffer collateral CA1 synapses, in in vitro hippocampal slices.

[5] = tested on: Glutamate, NMDA, Polyamine; assay: binding assay, Glutamate, NMDA, Polyamine; set-up: species or system rat; settings: 10 μM
Description: as §1

[6] = tested on: Schaffer collateral CA1 synapses; assay: long term potentiation (LTP) at Schaffer collateral CA1 synapses, in vitro hippocampal slices; type: cell-based; settings: for effect on magnitude of LTP: high frequency stimulus
Description: as §2

[7] = alternating T-maze learning task; type: in vivo, rat; settings: 60 min before testing
Description: Male 3 month old Fisher 344 X Brown Norway F1 cross rats (FBNF1) were used for this study. The t-maze was constructed with arms (45 cm long×10 cm wide×10 cm high) made of black Plexiglas enclosing the maze. Two plastic bottle caps, lined with wire mesh, were secured to the end of each goal arm in which the food reward (Cheerios, 100 mg/piece) was placed. Before the start of training, animals were gradually deprived of food to approximately 85% of their free feeding weight. On three successive days before the start of training, animals were habituated to the t-maze with food located throughout the maze. […] On the subsequent testing day, animals were given injections of AK51(0.3, 1, 3, 10, 30 mg/kg p.o.), or DMSO vehicle (1 mg/ml; Sigma, Saint Louis Mo.) in a blind manner via gastric gavage (4″, 16-ga; Braintree Scientific, Braintree Mass.) 60 min prior to the start of testing (n=8-9 per group. On the first trial of testing, both arms were baited with food and for the subsequent 20 trials only alternating choices (opposite of the animal's previous choice) were rewarded (˜30 sec inter-trial interval). The number of trials to criterion (5 consecutive correct choices) was calculated for each animal. Data was analyzed by ANOVA followed by Fisher PLSD post hoc tests comparing individual drug doses to vehicle (α=0.05). […]

[8] = tested on: Glutamate, Non-Selective; assay: binding assay, Glutamate, Non-Selective; set-up: species or system rat; settings: 10 μM
Description: as §1

[9] = target: Potassium Channel hERG (Homo sapiens, UniProt Q12809); assay: binding assay, Potassium Channel hERG
Description: as §1

[10] = tested on: Glutamate, NMDA, Agonism; assay: binding assay, Glutamate, NMDA, Agonism; set-up: species or system rat; settings: 10 μM
Description: as §1

[11] = tested on: Glutamate, NMDA, Phencyclidine; assay: binding assay, Glutamate, NMDA, Phencyclidine; set-up: species or system rat; settings: 10 μM
Description: as §1

[12] = target: T1, NMDA receptor (Rattus norvegicus, UniProt P35439); assay: NMDA receptor gated single neuron conductance (INMDA) in hippocampal CA1 pyramidal neurons; type: cell-based; settings: for relative potency / magnitude as enhancer of INMDA among the tested compounds: low concentrations (50-100 nM)
T1 construct: in hippocampal CAI pyramidal neurons; from tissue; host or cells: in vitro hippocampal slices, CA1 pyramidal neurons
Description: as §2

[13] = target: T1, NMDA receptor; settings: cited from earlier work
[14] = tested on: Schaffer collateral CA1 synapses; settings: cited from earlier work
[15] = tested on: Schaffer collateral CA1 synapses; settings: cited from earlier work; remark: listed apart in the source

Sequence of Potassium Channel hERG (Q12809 whole entry): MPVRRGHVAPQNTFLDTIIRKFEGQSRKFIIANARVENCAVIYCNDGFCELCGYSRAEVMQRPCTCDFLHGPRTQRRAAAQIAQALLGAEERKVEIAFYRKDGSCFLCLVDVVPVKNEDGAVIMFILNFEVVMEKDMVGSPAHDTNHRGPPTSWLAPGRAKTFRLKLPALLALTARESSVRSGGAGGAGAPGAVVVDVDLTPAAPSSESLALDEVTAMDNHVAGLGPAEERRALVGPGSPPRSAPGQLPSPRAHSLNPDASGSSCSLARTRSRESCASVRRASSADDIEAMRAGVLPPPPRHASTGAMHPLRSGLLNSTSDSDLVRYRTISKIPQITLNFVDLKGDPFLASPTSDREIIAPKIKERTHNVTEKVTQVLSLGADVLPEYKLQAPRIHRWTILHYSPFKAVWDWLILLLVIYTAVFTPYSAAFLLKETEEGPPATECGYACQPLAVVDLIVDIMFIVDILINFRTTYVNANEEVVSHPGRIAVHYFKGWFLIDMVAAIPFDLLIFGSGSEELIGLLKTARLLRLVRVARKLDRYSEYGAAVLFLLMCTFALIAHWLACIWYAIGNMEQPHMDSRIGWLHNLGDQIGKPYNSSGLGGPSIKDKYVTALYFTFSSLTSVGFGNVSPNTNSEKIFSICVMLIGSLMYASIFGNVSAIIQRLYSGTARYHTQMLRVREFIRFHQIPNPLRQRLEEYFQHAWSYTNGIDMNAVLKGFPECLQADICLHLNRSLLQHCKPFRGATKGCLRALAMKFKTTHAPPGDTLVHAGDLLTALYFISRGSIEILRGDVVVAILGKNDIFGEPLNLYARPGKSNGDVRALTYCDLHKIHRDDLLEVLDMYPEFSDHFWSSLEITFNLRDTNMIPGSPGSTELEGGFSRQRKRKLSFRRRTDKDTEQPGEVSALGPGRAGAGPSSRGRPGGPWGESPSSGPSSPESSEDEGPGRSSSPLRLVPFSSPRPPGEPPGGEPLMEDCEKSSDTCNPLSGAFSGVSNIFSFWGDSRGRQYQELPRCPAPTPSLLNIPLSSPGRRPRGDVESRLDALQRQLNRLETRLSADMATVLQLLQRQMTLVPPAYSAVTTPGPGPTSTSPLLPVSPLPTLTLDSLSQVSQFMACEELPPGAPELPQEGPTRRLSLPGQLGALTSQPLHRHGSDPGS

With `O=C1NCC12CCCN2` (stereo not drawn) [AK51] the “% Inhibition” value [1] was 4%, the “% Inhibition” value [2] was −13% and the “% Inhibition” value [3] was −8%. For the same compound, the “effect on LTD” value [4] was “not altering”, the “% Inhibition” value [5] was −14% and the “effect on magnitude of LTP” value ([6]; 100 nM) was “potentiate”. The “effect on magnitude of LTP” value ([6]; 1 μM) was “potentiate”, the “effect on magnitude of LTP” value ([6]; 1 μM, listed as NRX-10,051) was “doubled” and the “effect on LTP” value ([6]; FIG. 4, 100 nM and 1 μM bath application) was “enhances”. The “learning behavior in the T-maze test” value ([7]; 1.0 mg/kg by mouth, P<0.001) was “statistically significant enhancement”, the “learning behavior in the T-maze test” value ([7]; 3.0 mg/kg by mouth, P<0.01) was “statistically significant enhancement” and the “% Inhibition” value [8] was −10%. The inhibition at 10 µM [9] was 3%, the “% Inhibition” value [10] was 27% and the “% Inhibition” value [11] was −5%. For the same compound, the “effect on single shock evoked INMDA (NMDA e.p.s.c.s)” value (from here on “effect … (NMDA e.p.s.c.s)”) ([12]; 100 nM, listed as NRX-10,051) was “enhanced; also recorded: marked enhancement”, the “effect … (NMDA e.p.s.c.s)” value ([12]; 1 μM) was “enhancement” and the “effect … (NMDA e.p.s.c.s)” value ([12]; 1 μM, listed as NRX-10,051) was “enhanced”. For the same compound, the “effect on NMDA current (NMDA receptor-gated current, whole-cell recording)” value ([12]; FIG. 4, 100 nM and 1 μM, 20 min bath application) was “enhances” and the “relative potency / magnitude as enhancer of INMDA among the tested compounds” value [12] was “less potency than compound B; also recorded: smaller in magnitude”.
For `C[C@@H](O)[C@H](N)C(=O)N1CCC[C@H]1C(=O)N1CCC[C@H]1C(=O)N[C@H](C(N)=O)[C@@H](C)O` [GLYX-13] (H-TPPT-NH2), the “effect on burst INMDA” value ([13]; 100 μM) is listed as “reducing”, the “effect on burst-activated INMDA” value ([13]; low concentration 1-10 μM) is listed as “enhancement” and the “effect on single pulse evoked INMDA” value ([13]; low concentration 1-10 μM) is listed as “reducing”. For the same compound, the “effect on LTD” value ([14]; 100 μM) was “no longer affected”, the “effect on LTD” value ([14]; low concentration 1-10 μM) was “reducing” and the “effect on LTP” value ([15]; 100 μM) was “reducing”. For the same compound, the “effect on LTP” value ([15]; low concentration 1-10 μM) was “enhancement”.
With `CC(O)C(NC(=O)OCc1ccccc1)C(=O)N1CC2(CCCN2C(=O)OCc2ccccc2)C1=O` (stereo not drawn) [AK-52] the “effect on LTD” value [4] was “without altering; also recorded: did not affect”, the “effect on magnitude of LTP” value ([6]; 100 nM) was “enhancement of LTP similar in magnitude to compound B and AK-51” and the “effect on magnitude of LTP” value ([6]; 1 μM) was “slight, but significant, reduction”. For the same compound, the “effect on induction / magnitude of LTP” value ([6]; concentration not given) was “selectively enhances”, the “effect … (NMDA e.p.s.c.s)” value ([12]; 100 nM) was “only a mild enhancement” and the “effect … (NMDA e.p.s.c.s)” value ([12]; 100 nM, listed as AK52) was “enhancement”. The “effect … (NMDA e.p.s.c.s)” value ([12]; 1 μM) was “significant reduction”, the “effect … (NMDA e.p.s.c.s)” value ([12]; 1 μM, listed as AK52) was “marked reduction” and the “relative potency / magnitude as enhancer of INMDA among the tested compounds” value [12] was “weakest enhancer”.
